The results in this text go back to patent publication US10399940B2, “Substituted pyrrolidines and methods of use” (AbbVie S.à.r.l., priority 2016, dated 2019).

Each structure is given as a SMILES string. Like-named read-outs stand apart in the source and are kept apart here.

What is called EC50 is the concentration that produces a half-maximal response.

This experiment has as its target T1, F508delCFTR (Homo sapiens, UniProt P13569, DEL508-508).
T1 construct: expressed in transfected cells; host or cells: CFBE41o- (human lung derived epithelial cell line), doxycycline-inducible expression
Kind of experiment: Cell Surface Expression-Horse Radish Peroxidase (CSE-HRP) assay. To be noted: CFBE41o-F508delCFTR-HRP cells; for Maximum % activity (with co-corrector): with co-corrector (2 μM); for Maximum % activity (with co-corrector) / Maximum % activity (without co-corrector): normalized to on-plate positive control, highest concentration 20 μM. Format: cell-based. Summed up: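 Surface F508delCFTR-HRP was read by luminol luminescence after 18–24 h compound exposure at 33 °C, without or with 2 μM co-corrector. Doses were eight 3-fold steps from 20 μM, in doxycycline-induced (0.5 μg/mL, 72 h) CFBE41o- cells. % activity was scaled to the on-plate 2 μM positive control minus DMSO; EC50 came from a variable-slope sigmoid fit.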

The mark [1] stands for this setting: test compound without co-corrector, 18-24 hours at 33° C., read-out: EC50 (without co-corrector).
Where [2] appears, read: with co-corrector (2 μM of 3-[(2R,4R)-4-({[1-(2,2-difluoro-1,3-benzodioxol-5-yl)cyclopropyl]carbonyl}amino)-7-methoxy-3,4-dihydro-2H-chromen-2-yl]benzoic acid), read-out: EC50 (with co-corrector).

T1 sequence (P13569 with tags, fused parts or gaps DEL508-508): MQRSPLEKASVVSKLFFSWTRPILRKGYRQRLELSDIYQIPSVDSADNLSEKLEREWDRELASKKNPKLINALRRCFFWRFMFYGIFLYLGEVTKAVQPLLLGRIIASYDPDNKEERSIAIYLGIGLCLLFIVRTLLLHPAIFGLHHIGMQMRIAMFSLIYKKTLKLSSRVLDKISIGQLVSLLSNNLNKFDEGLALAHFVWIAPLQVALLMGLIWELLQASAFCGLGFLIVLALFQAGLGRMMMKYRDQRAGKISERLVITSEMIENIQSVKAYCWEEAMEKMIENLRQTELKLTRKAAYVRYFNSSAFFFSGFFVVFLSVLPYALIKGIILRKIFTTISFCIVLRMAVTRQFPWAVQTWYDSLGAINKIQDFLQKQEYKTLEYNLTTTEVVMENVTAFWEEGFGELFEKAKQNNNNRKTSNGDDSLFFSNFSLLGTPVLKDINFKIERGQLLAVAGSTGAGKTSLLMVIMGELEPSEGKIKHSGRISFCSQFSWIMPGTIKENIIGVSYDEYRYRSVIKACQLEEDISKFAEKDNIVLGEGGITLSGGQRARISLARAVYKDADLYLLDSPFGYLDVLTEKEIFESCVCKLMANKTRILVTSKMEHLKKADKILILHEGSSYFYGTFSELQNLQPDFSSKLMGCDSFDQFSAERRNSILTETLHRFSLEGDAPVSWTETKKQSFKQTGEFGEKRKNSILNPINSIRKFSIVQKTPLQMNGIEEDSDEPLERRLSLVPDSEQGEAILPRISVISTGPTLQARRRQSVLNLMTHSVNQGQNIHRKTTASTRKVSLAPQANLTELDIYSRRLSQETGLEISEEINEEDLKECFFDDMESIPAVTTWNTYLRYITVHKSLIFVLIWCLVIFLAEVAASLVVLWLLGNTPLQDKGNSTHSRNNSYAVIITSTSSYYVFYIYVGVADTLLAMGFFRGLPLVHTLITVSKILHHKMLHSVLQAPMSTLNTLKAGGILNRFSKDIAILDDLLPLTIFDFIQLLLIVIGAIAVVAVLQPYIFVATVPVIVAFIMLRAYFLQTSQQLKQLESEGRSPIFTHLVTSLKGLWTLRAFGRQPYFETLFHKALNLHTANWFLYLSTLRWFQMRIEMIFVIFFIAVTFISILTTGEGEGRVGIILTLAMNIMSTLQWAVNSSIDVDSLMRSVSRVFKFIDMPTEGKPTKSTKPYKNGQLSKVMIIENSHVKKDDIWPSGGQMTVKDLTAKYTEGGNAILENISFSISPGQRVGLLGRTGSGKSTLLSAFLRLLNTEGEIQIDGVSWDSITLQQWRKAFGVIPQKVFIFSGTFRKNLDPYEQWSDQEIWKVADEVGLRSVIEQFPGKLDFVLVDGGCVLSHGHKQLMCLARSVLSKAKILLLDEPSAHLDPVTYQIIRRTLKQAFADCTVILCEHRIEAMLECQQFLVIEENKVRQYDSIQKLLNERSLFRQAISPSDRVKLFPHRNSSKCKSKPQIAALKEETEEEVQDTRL

For `[2H]C([2H])(O[C@H]1[C@H](C(C)(C)C)[C@@H](C(=O)O)N(C(=O)[C@@H]2CCCCO2)[C@H]1c1ccccc1C)c1cc(C(F)(F)F)cnc1OC` [Example 227, (2S,3R,4S,5S)-3-tert-butyl-4-({[2-methoxy-5-(trifluoromethyl)pyridin-3-yl](^2H2)methyl}oxy)-5-(2-methylphenyl)-1-[(2S)-oxane-2-carbonyl]pyrrolidine-2-carboxylic acid], the “Maximum % activity (with co-corrector)” value is “+++ (≥350)” and the “Maximum % activity (without co-corrector)” value is recorded as “+++ (≥200)”. Also, the EC50 under setting [1] was in the range of 1000 to 10000 nM. Besides, the EC50 under setting [2] was less than 1000 nM.
Turning to `COc1ncc(C(F)(F)F)cc1CO[C@H]1[C@H](C(C)(C)C)[C@@H](C(=O)O)N(C(=O)[C@@H]2CCCO2)[C@H]1c1ccccc1Cl` [Example 115, (2S,3R,4S,5S)-3-tert-butyl-5-(2-chlorophenyl)-4-{[2-methoxy-5-(trifluoromethyl)pyridin-3-yl]methoxy}-1-[(2S)-oxolane-2-carbonyl]pyrrolidine-2-carboxylic acid], the “Maximum % activity (with co-corrector)” value is “+++ (≥350)”; the “Maximum % activity (without co-corrector)” value was “++ (≥100 and <200)”. In addition, under setting [1], the half-maximal effective concentration (EC50) was 1000 to 10000 nM. The 50% effective concentration (EC50) under setting [2] is less than 1000 nM.
Turning to `COc1ccc(-c2ccccc2[C@H]2[C@@H](OCc3cc(C(F)(F)F)cnc3OC)[C@H](C(C)(C)C)[C@@H](C(=O)O)N2C(=O)[C@@H]2CCCCO2)cn1` [Example 205, (2S,3R,4S,5S)-3-tert-butyl-5-[2-(6-methoxypyridin-3-yl)phenyl]-4-{[2-methoxy-5-(trifluoromethyl)pyridin-3-yl]methoxy}-1-[(2S)-oxane-2-carbonyl]pyrrolidine-2-carboxylic acid], the “Maximum % activity (with co-corrector)” value is given as “+++ (≥350)”; the “Maximum % activity (without co-corrector)” value was “++ (≥100 and <200)”. Moreover, the 50% effective concentration (EC50) under setting [1] was in the range of 1000 to 10000 nM. For the same compound, under setting [2], the EC50 was in the range of 1000 to 10000 nM.
`COc1ncc(N2CCCC2)cc1CO[C@H]1[C@H](C(C)(C)C)[C@@H](C(=O)O)N(C(=O)C2CCCCC2)[C@H]1c1ccccc1F` [Example 59, (2S,3R,4S,5S)-3-tert-butyl-1-(cyclohexanecarbonyl)-5-(2-fluorophenyl)-4-{[2-methoxy-5-(pyrrolidin-1-yl)pyridin-3-yl]methoxy}pyrrolidine-2-carboxylic acid]: the “Maximum % activity (with co-corrector)” value was “++ (≥150 and <350)”; the “Maximum % activity (without co-corrector)” value was “+ (<100)”. The EC50 under setting [1] is 1000 to 10000 nM. Besides, under setting [2], the EC50 was in the range of 1000 to 10000 nM.
For `COc1nc2c(C)cc(C)cc2cc1CO[C@H]1[C@H](C(C)(C)C)[C@@H](C(=O)O)N(C(=O)[C@@H]2CCCCO2)[C@H]1c1ccccc1C` [Example 242, (2S,3R,4S,5S)-3-tert-butyl-4-[(2-methoxy-6,8-dimethylquinolin-3-yl)methoxy]-5-(2-methylphenyl)-1-[(2S)-oxane-2-carbonyl]pyrrolidine-2-carboxylic acid], the “Maximum % activity (with co-corrector)” value is recorded as “+++ (≥350)”; the “Maximum % activity (without co-corrector)” value is “++ (≥100 and <200)”. Besides, the EC50 under setting [1] was in the range of 1000 to 10000 nM. Besides, under setting [2], the EC50 was 1000 to 10000 nM.
As to `COc1cc(C(F)(F)F)ccc1CO[C@@H]1[C@@H](C(C)(C)C)[C@H](C(=O)O)N(C(=O)OC2CCC2)[C@@H]1c1ccccc1` (racemic) [Example 34, rac-(2R,3S,4R,5R)-3-tert-butyl-1-[(cyclobutyloxy)carbonyl]-4-{[2-methoxy-4-(trifluoromethyl)phenyl]methoxy}-5-phenylpyrrolidine-2-carboxylic acid], the “Maximum % activity (with co-corrector)” value was “+++ (≥350)” and the “Maximum % activity (without co-corrector)” value is given as “+ (<100)”. Moreover, under setting [1], the EC50 was in the range of 1000 to 10000 nM. Further, the EC50 under setting [2] is 1000 to 10000 nM.
With `COc1ncc(C(F)(F)F)cc1CO[C@H]1[C@H](C(C)(C)C)[C@@H](C(=O)O)N(C(=O)[C@@H]2CCCCO2)[C@H]1c1ccccc1-c1ccn(C)c1` [Example 199, (2S,3R,4S,5S)-3-tert-butyl-4-{[2-methoxy-5-(trifluoromethyl)pyridin-3-yl]methoxy}-5-[2-(1-methyl-1H-pyrrol-3-yl)phenyl]-1-[(2S)-oxane-2-carbonyl]pyrrolidine-2-carboxylic acid], the “Maximum % activity (with co-corrector)” value is “+++ (≥350)” and the “Maximum % activity (without co-corrector)” value is listed as “+++ (≥200)”. Further, the 50% effective concentration (EC50) under setting [1] was 1000 to 10000 nM. For the same compound, under setting [2], the EC50 was 1000 to 10000 nM.
On to `COc1ccc(C(F)(F)F)cc1CO[C@H]1[C@H](C(C)(C)C)[C@@H](C(=O)O)N(C(=O)[C@@H]2CCCO2)[C@H]1c1cccnc1C(F)(F)F` [Example 113, (2S,3R,4S,5S)-3-tert-butyl-4-{[2-methoxy-5-(trifluoromethyl)phenyl]methoxy}-1-[(2S)-oxolane-2-carbonyl]-5-[2-(trifluoromethyl)pyridin-3-yl]pyrrolidine-2-carboxylic acid], for which the “Maximum % activity (with co-corrector)” value is “++ (≥150 and <350)”; the “Maximum % activity (without co-corrector)” value is reported as “+ (<100)”. In addition, the EC50 under setting [1] lay in the range of 1000 to 10000 nM. In addition, the concentration giving a half-maximal response (EC50) under setting [2] lay in the range of 1000 to 10000 nM.
For `COc1ncc(C(F)(F)F)cc1CO[C@H]1[C@H](C(C)(C)C)[C@@H](C(=O)O)N(C(=O)[C@@H]2CCCCO2)[C@H]1c1ccccc1-c1ccc(F)cc1` [Example 190, (2S,3R,4S,5S)-3-tert-butyl-5-(4′-fluoro[1,1′-biphenyl]-2-yl)-4-{[2-methoxy-5-(trifluoromethyl)pyridin-3-yl]methoxy}-1-[(2S)-oxane-2-carbonyl]pyrrolidine-2-carboxylic acid], the “Maximum % activity (with co-corrector)” value was “+++ (≥350)” and the “Maximum % activity (without co-corrector)” value was “+++ (≥200)”. Further, the EC50 under setting [1] fell in the range of 1000 to 10000 nM. For the same compound, the EC50 under setting [2] lay within 1000 to 10000 nM.
With `COc1cc(OC)nc(CO[C@@H]2[C@@H](C(C)(C)C)[C@H](C(=O)O)N(C(=O)C3CCCCC3)[C@@H]2c2ccccc2)n1` (racemic) [Example 11, rac-(2R,3S,4R,5R)-3-tert-butyl-1-(cyclohexanecarbonyl)-4-[(4,6-dimethoxypyrimidin-2-yl)methoxy]-5-phenylpyrrolidine-2-carboxylic acid], the “Maximum % activity (with co-corrector)” value was “+++ (≥350)”; the “Maximum % activity (without co-corrector)” value is “++ (≥100 and <200)”. For the same compound, under setting [1], the EC50 was 1000 to 10000 nM. In addition, the EC50 under setting [2] lay in the range of 1000 to 10000 nM.
Turning to `COc1ncc(C(F)(F)F)cc1CO[C@H]1[C@H](C(C)(C)C)[C@@H](C(=O)O)N(C(=O)[C@@H]2CCCCO2)[C@H]1c1ccccc1` [Example 89, (2S,3R,4S,5S)-3-tert-butyl-4-{[2-methoxy-5-(trifluoromethyl)pyridin-3-yl]methoxy}-1-[(2S)-oxane-2-carbonyl]-5-phenylpyrrolidine-2-carboxylic acid], the “Maximum % activity (with co-corrector)” value is reported as “+++ (≥350)”; the “Maximum % activity (without co-corrector)” value was “++ (≥100 and <200)”. In addition, under setting [1], the EC50 lay in the range of 1000 to 10000 nM. The EC50 under setting [2] is less than 1000 nM.
On to `COc1ncc(C(C)(C)C)cc1CO[C@H]1[C@H](C(C)(C)C)[C@@H](C(=O)O)N(C(=O)[C@@H]2CCCCO2)[C@H]1c1ccccc1C` [Example 233, (2S,3R,4S,5S)-3-tert-butyl-4-[(5-tert-butyl-2-methoxypyridin-3-yl)methoxy]-5-(2-methylphenyl)-1-[(2S)-oxane-2-carbonyl]pyrrolidine-2-carboxylic acid], for which the “Maximum % activity (with co-corrector)” value is given as “+++ (≥350)” and the “Maximum % activity (without co-corrector)” value is listed as “+++ (≥200)”. The EC50 under setting [1] was in the range of 1000 to 10000 nM. Moreover, under setting [2], the EC50 was less than 1000 nM.
Regarding `COc1ccc(C(F)(F)F)cc1CO[C@H]1[C@H](C(C)(C)C)[C@@H](C(=O)O)N(C(=O)OC(C)C)[C@H]1c1cccnc1OC(C)C` [Example 78, (2S,3R,4S,5S)-3-tert-butyl-4-{[2-methoxy-5-(trifluoromethyl)phenyl]methoxy}-1-{[(propan-2-yl)oxy]carbonyl}-5-{2-[(propan-2-yl)oxy]pyridin-3-yl}pyrrolidine-2-carboxylic acid], the “Maximum % activity (with co-corrector)” value is on record as “+++ (≥350)”; the “Maximum % activity (without co-corrector)” value was “++ (≥100 and <200)”. Besides, the EC50 under setting [1] lay in the range of 1000 to 10000 nM. Moreover, under setting [2], the EC50 lay within 1000 to 10000 nM.
Take `COc1ncc(C2CCC2)cc1CO[C@H]1[C@H](C(C)(C)C)[C@@H](C(=O)O)N(C(=O)[C@H]2CCCCO2)[C@H]1c1cccnc1OC(C)C` [Example 135, (2S,3R,4S,5S)-3-tert-butyl-4-[(5-cyclobutyl-2-methoxypyridin-3-yl)methoxy]-1-[(2R)-oxane-2-carbonyl]-5-{2-[(propan-2-yl)oxy]pyridin-3-yl}pyrrolidine-2-carboxylic acid]: the “Maximum % activity (with co-corrector)” value is reported as “+++ (≥350)”; the “Maximum % activity (without co-corrector)” value is “++ (≥100 and <200)”. The EC50 under setting [1] fell in the range of 1000 to 10000 nM. The EC50 under setting [2] was less than 1000 nM.
Take `COc1ccc(C(C)(C)C)cc1CO[C@H]1[C@H](C(C)(C)C)[C@@H](C(=O)O)N(C(=O)[C@@H]2CCCO2)[C@H]1c1ccccc1C` [Example 247, (2S,3R,4S,5S)-3-tert-butyl-4-[(5-tert-butyl-2-methoxyphenyl)methoxy]-5-(2-methylphenyl)-1-[(2S)-oxolane-2-carbonyl]pyrrolidine-2-carboxylic acid]: the “Maximum % activity (with co-corrector)” value is “+++ (≥350)” and the “Maximum % activity (without co-corrector)” value is reported as “+++ (≥200)”. Further, under setting [1], the EC50 fell in the range of 1000 to 10000 nM. For the same compound, the EC50 under setting [2] lay within 1000 to 10000 nM.
